Like-named read-outs stand apart in the source and are kept apart here.
How the values were obtained:
[1] = test system: human multiple myeloma (RPMI 8226) cell line; assay: MTT cell proliferation assay, RPMI 8226; type: cell-based; conditions: antiproliferative, 96 h, read-out: IC50 ± SD RPMI 8226
Method: The influence of the tested compounds on the proliferation of RPMI 8226 and A549 cells was estimated with the MTT assay as described previously. Briefly, 1 × 10^4 cells/mL (RPMI 8226) or 0.2 × 10^4 (A549) cells per well were seeded into 96-well plates and cultured (in growth medium containing 10% FBS) with different concentrations of each compound ranging from 3.125 to 100 μM. The control cells were treated with the vehicle DMSO (0.1%).

[2] = test system: mouse skin melanoma (B16-F10) cell line; assay: MTT cell proliferation assay, B16-F10; type: cell-based; conditions: B16-F10, antiproliferative, MTT, 72 h, read-out: IC50 ± SD B16-F10
Description: The influence of the tested compounds on the proliferation of melanoma B16F10 and breast MDA-MB-231 cells was estimated with the MTT assay as described previously. The cells counted using an automated cell counter (Countess® II FL, Invitrogen by Thermo Fisher Scientific Inc., Waltham, MA USA) and plated in 96-well plates (Nunc Edge 2F, Thermo Fisher Scientific Inc.) at a density of 0.1 × 10^4 and 0.2 × 10^4 per well, respectively. A total of twenty-four hours later, drugs were applied with final concentration: 5, 0.5, 0.05, and 0.005 μg/mL, and after an additional seventy-two hours MTT staining was performed as follows: twenty microliters of 5 mg/mL MTT solution and was added to each well of 96-well plate incubated for 2 h. Subsequently, the medium was removed and crystals of formazan were solubilized in pure isopropanol. Absorbance readout was conducted immediately using plate reader Multiskan Spectrum at 570 nm (Thermo Electron Corporation, Waltham, MA, USA). The background optical density was measured in the wells filled with culture medium, without the cells. The biological evaluation was performed as three independent experiments. The IC50 values were calculated using ED50plus v 1.0 freeware software and the mean response and standard deviation were calculated using Excel software. All of the chemicals were obtained from Sigma-Aldrich.

[3] = molecular target: mushroom tyrosinase (Agaricus bisporus, UniProt C7FF04); assay: Kinetic analysis of the inhibition of tyrosinase (Lineweaver-Burk); type: biochemical; conditions: tyrosinase-catalyzed oxidation of L-DOPA
Method: To understand the mechanism of mushroom tyrosinase inhibition by new compounds 3a–3h, enzyme inhibition kinetic studies were performed. The mechanism of tyrosinase inhibition was determined using Lineweaver–Burk plot, which is a useful graphical method for analysis of the Michaelis–Menten equations used to determine the inhibition constant […].
A series of experiments were performed to determine the inhibition kinetics of compounds by following the already reported method. The inhibitor concentrations for compounds were 50 and 100 µM. Substrate L-DOPA concentration was between 100 and 250 µM in all kinetic studies. Maximal initial velocity was determined from the initial linear portion of absorbance up to ten minutes after addition of enzyme. The inhibition type of the enzyme, Michaelis constant (KM) and maximal velocity (Vmax) were determined by Lineweaver–Burk plots of inverse of velocities (1/V) versus inverse of substrate concentration 1/[L-DOPA] mM^−1.

[4] = test system: A549 cells; type: cell-based, human
Method: (§1) The RPMI 8226 or A549 cells were seeded in 6-well plates in medium containing 10% FBS without or with compound 3a (2.5, 5, 10, 20, or 40 µM). After 24-h and 48-h treatment, the cell cycle analysis was performed by determination of the DNA contents on the basis of PI staining as described previously. Briefly, the cells were harvested, washed with PBS, and fixed overnight with 80% ethanol at −20 °C. After that, the cells were washed with PBS and stained with PI using PI/RNase Staining Buffer (BD Biosciences, BD Pharmingen™, USA) for 30 min in darkness at RT. Next, the stained cells were analyzed using FACS Calibur. The intensity of PI fluorescence of individual nuclei was determined and at least 10 000 events were measured within an acquisition rate >60 events/s. The FACS data were analyzed using Cell Quest Pro Version 6.0 (BD Biosciences, San Jose, CA, USA). for the Macintosh operating system. The data were analyzed to determine the percentage of cells at the sub-G1 phase (apoptotic cells) and each phase of the cell cycle (G1, S, and G2/M).

[5] = test system: RPMI 8226 cells; type: cell-based, human
Method: as §1

Chain of mushroom tyrosinase (C7FF04 1-392): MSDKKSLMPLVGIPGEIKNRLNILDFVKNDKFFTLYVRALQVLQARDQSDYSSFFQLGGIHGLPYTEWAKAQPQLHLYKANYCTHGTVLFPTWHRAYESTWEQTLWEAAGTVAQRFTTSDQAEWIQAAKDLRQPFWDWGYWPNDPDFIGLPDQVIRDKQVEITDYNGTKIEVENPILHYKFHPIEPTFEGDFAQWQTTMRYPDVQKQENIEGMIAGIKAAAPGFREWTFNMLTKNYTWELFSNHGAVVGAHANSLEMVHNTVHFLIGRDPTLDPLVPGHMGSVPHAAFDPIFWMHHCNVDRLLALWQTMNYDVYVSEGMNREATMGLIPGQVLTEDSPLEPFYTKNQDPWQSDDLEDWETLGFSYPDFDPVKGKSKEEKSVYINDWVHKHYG

CN1C2CCC1CC(=NNc1nc(-c3ccc(I)cc3)cs1)C2 [Compound 3a, 4-(4-Iodophenyl)-2-(2-(8-methyl-8-azabicyclo[3.2.1]octan-3-ylidene)hydrazinyl)thiazole]
IC50 [1]: 9.32 ± 0.71 µM
IC50 [2]: 1.51 ± 0.14 µM
Inhibitory Mechanism [3]: mixed
Cell cycle distribution G0/G1 ([4]; A549, 2.5 µM, 24 h): 64.49±1.89 % of cells
Cell cycle distribution G2/M ([4]; A549, 2.5 µM, 24 h): 14.68±2.11 % of cells
Cell cycle distribution S ([4]; A549, 2.5 µM, 24 h): 12.39±2.34 % of cells
Cell cycle distribution sub-G1 ([4]; A549, 2.5 µM, 24 h): 8.81±3.73 % of cells
Cell cycle distribution G0/G1 ([4]; A549, 2.5 µM, 48 h): 73.22±1.97 % of cells
Cell cycle distribution G2/M ([4]; A549, 2.5 µM, 48 h): 8.91±2.22 % of cells
Cell cycle distribution S ([4]; A549, 2.5 µM, 48 h): 6.07±1.54 % of cells
Cell cycle distribution sub-G1 ([4]; A549, 2.5 µM, 48 h): 11.98±3.62 % of cells
Cell cycle distribution G0/G1 ([4]; A549, 5 µM, 24 h): 65.90±2.36 % of cells
Cell cycle distribution G2/M ([4]; A549, 5 µM, 24 h): 13.62±2.25 % of cells
Cell cycle distribution S ([4]; A549, 5 µM, 24 h): 12.18±2.45 % of cells
Cell cycle distribution sub-G1 ([4]; A549, 5 µM, 24 h): 8.94±3.39 % of cells
Cell cycle distribution G0/G1 ([4]; A549, 5 µM, 48 h): 68.55±8.03 % of cells
Cell cycle distribution G2/M ([4]; A549, 5 µM, 48 h): 9.05±1.72 % of cells
Cell cycle distribution S ([4]; A549, 5 µM, 48 h): 6.81±2.66 % of cells
Cell cycle distribution sub-G1 ([4]; A549, 5 µM, 48 h): 15.74±6.03 % of cells
Cell cycle distribution G0/G1 ([4]; A549, 10 µM, 24 h): 66.51±4.46 % of cells
Cell cycle distribution G2/M ([4]; A549, 10 µM, 24 h): 11.43±2.88 % of cells
Cell cycle distribution S ([4]; A549, 10 µM, 24 h): 9.82±2.73 % of cells
Cell cycle distribution sub-G1 ([4]; A549, 10 µM, 24 h): 13.23±7.01 % of cells
Cell cycle distribution G0/G1 ([4]; A549, 10 µM, 48 h): 68.54±6.87 % of cells
Cell cycle distribution G2/M ([4]; A549, 10 µM, 48 h): 8.44±1.47 % of cells
Cell cycle distribution S ([4]; A549, 10 µM, 48 h): 7.07±2.63 % of cells
Cell cycle distribution sub-G1 ([4]; A549, 10 µM, 48 h): 16.15±6.33 % of cells
Cell cycle distribution G0/G1 ([4]; A549, 20 µM, 24 h): 66.45±9.20 % of cells
Cell cycle distribution G2/M ([4]; A549, 20 µM, 24 h): 7.16±2.15 % of cells
Cell cycle distribution S ([4]; A549, 20 µM, 24 h): 5.23±2.38 % of cells
Cell cycle distribution sub-G1 ([4]; A549, 20 µM, 24 h): 22.36±12.24 % of cells
Cell cycle distribution G0/G1 ([4]; A549, 20 µM, 48 h): 63.07±6.59 % of cells
Cell cycle distribution G2/M ([4]; A549, 20 µM, 48 h): 5.19±0.93 % of cells
Cell cycle distribution S ([4]; A549, 20 µM, 48 h): 4.61±1.21 % of cells
Cell cycle distribution sub-G1 ([4]; A549, 20 µM, 48 h): 27.32±6.78 % of cells
Cell cycle distribution G0/G1 ([4]; A549, 40 µM, 24 h): 41.03±2.93 % of cells
Cell cycle distribution G2/M ([4]; A549, 40 µM, 24 h): 12.87±5.29 % of cells
Cell cycle distribution S ([4]; A549, 40 µM, 24 h): 11.34±0.58 % of cells
Cell cycle distribution sub-G1 ([4]; A549, 40 µM, 24 h): 35.46±9.33 % of cells
Cell cycle distribution G0/G1 ([4]; A549, 40 µM, 48 h): 16.49±3.46 % of cells
Cell cycle distribution G2/M ([4]; A549, 40 µM, 48 h): 2.19±0.38 % of cells
Cell cycle distribution S ([4]; A549, 40 µM, 48 h): 6.05±0.87 % of cells
Cell cycle distribution sub-G1 ([4]; A549, 40 µM, 48 h): 75.27±4.12 % of cells
Cell cycle distribution G0/G1 ([5]; RPMI 8226, 2.5 µM, 24 h): 41.14±1.03 % of cells
Cell cycle distribution G2 ([5]; RPMI 8226, 2.5 µM, 24 h): 22.35±1.19 % of cells
Cell cycle distribution S ([5]; RPMI 8226, 2.5 µM, 24 h): 21.59±1.77 % of cells
Cell cycle distribution Sub-G1 ([5]; RPMI 8226, 2.5 µM, 24 h): 15.53±2.23 % of cells
Cell cycle distribution G0/G1 ([5]; RPMI 8226, 2.5 µM, 48 h): 35.8±1.49 % of cells
Cell cycle distribution G2 ([5]; RPMI 8226, 2.5 µM, 48 h): 16.99±2 % of cells
Cell cycle distribution S ([5]; RPMI 8226, 2.5 µM, 48 h): 26.22±0.97 % of cells
Cell cycle distribution Sub-G1 ([5]; RPMI 8226, 2.5 µM, 48 h): 21.49±0.94 % of cells
Cell cycle distribution G0/G1 ([5]; RPMI 8226, 5 µM, 24 h): 38.23±6.83 % of cells
Cell cycle distribution G2 ([5]; RPMI 8226, 5 µM, 24 h): 21.31±4.02 % of cells
Cell cycle distribution S ([5]; RPMI 8226, 5 µM, 24 h): 18.68±2.58 % of cells
Cell cycle distribution Sub-G1 ([5]; RPMI 8226, 5 µM, 24 h): 21.32±6.2 % of cells
Cell cycle distribution G0/G1 ([5]; RPMI 8226, 5 µM, 48 h): 40.3±3.15 % of cells
Cell cycle distribution G2 ([5]; RPMI 8226, 5 µM, 48 h): 15.23±5.04 % of cells
Cell cycle distribution S ([5]; RPMI 8226, 5 µM, 48 h): 19.12±2.51 % of cells
Cell cycle distribution Sub-G1 ([5]; RPMI 8226, 5 µM, 48 h): 25.53±7.59 % of cells
Cell cycle distribution G0/G1 ([5]; RPMI 8226, 10 µM, 24 h): 38.08±9.38 % of cells
Cell cycle distribution G2 ([5]; RPMI 8226, 10 µM, 24 h): 17.45±2.75 % of cells
Cell cycle distribution S ([5]; RPMI 8226, 10 µM, 24 h): 21.4±3.5 % of cells
Cell cycle distribution Sub-G1 ([5]; RPMI 8226, 10 µM, 24 h): 23.53±7.04 % of cells
Cell cycle distribution G0/G1 ([5]; RPMI 8226, 10 µM, 48 h): 38.5±2.77 % of cells
Cell cycle distribution G2 ([5]; RPMI 8226, 10 µM, 48 h): 18.78±2.32 % of cells
Cell cycle distribution S ([5]; RPMI 8226, 10 µM, 48 h): 18.61±4.5 % of cells
Cell cycle distribution Sub-G1 ([5]; RPMI 8226, 10 µM, 48 h): 28.01±5.09 % of cells
Cell cycle distribution G0/G1 ([5]; RPMI 8226, 20 µM, 24 h): 42.63±4.03 % of cells
Cell cycle distribution G2 ([5]; RPMI 8226, 20 µM, 24 h): 15.7±5.79 % of cells
Cell cycle distribution S ([5]; RPMI 8226, 20 µM, 24 h): 19.83±2.92 % of cells
Cell cycle distribution Sub-G1 ([5]; RPMI 8226, 20 µM, 24 h): 24.09±2.62 % of cells
Cell cycle distribution G0/G1 ([5]; RPMI 8226, 20 µM, 48 h): 31.66±10.94 % of cells
Cell cycle distribution G2 ([5]; RPMI 8226, 20 µM, 48 h): 17.47±1.42 % of cells
Cell cycle distribution S ([5]; RPMI 8226, 20 µM, 48 h): 20.74±2.14 % of cells
Cell cycle distribution Sub-G1 ([5]; RPMI 8226, 20 µM, 48 h): 29.68±10.49 % of cells
